≈ marks a conversion by molar mass, not a printed value. Where two headings read alike, the source gives them in different places. One block for each molecule: values may come before it.
Columns and labels:
[1] = test system: Phytophthora cactorum VKM F-985; assay: Mycelial radial growth inhibition; format: cell-based; conditions: Phytophthora cactorum; for inhibition at 10 µg/mL / inhibition at 15 µg/mL / inhibition at 30 µg/mL / inhibition at 60 µg/mL: read-out: Inhibition value, I (%)
Description: (§1) Plant pathogenic bacterial strains Micrococcus luteus B-109, Pectobacterium atrosepticum 1043, Pectobacterium carotovorum subsp. carotovorum MI, Pseudomonas fluorescens EL-2.1, and Xanthomonas campestris B-610 and the fungal strain Fusarium oxysporum IBPPM 543 were from the Collection of Rhizosphere Microorganisms, IBPPM RAS (WFCC no. 975, WDCM no. 1021) (CM IBPPM, http://collection.ibppm.ru). The pathogenic fungus Phytophthora cactorum VKM F-985, provided by the All-Russian Collection of Microorganisms (VKM) and deposited at the A.E. Favorsky Irkutsk Institute of Chemistry, SB RAS, was also used as a test organism. Bacteria M. luteus, P. carotovorum subsp. carotovorum, P. atrosepticum, and P. fluorescens were grown in a meat–peptone medium (BP), and X. campestris was grown in the medium with glucose, yeast extract, and calcium carbonate (GYCa). Solid media contained Bacto agar (18 g/L); pH was adjusted to 7.2–7.4. All bacterial cultures were grown at 28 °C. The mycelial cultures of F. oxysporum and P. cactorum were grown on a glucose–peptone–yeast (GPY) nutrient medium at 27 °C. For inoculum preparation, both fungal strains were initially grown on the agar GPY in Petri dishes and then transferred into the seed medium by punching out 5 mm of the agar plate culture with a self-designed cutter.
(§2) For the fungicidal activity analysis, radial growth (colony diameters) of the fungi on a solid medium in the absence and in the presence of the compounds 5a–e and 7a–c solutions at various concentrations were compared. The method consisted of the following: A sterile GPY agar medium (20.0 mL), which was melted and then allowed to cool to approximately 60 °C, was mixed with the precisely measured volumes of the solutions under question and poured into a sterile Petri dish (90 mm i.d.). After the solidification of GPY agar, the media were inoculated by the fungus using 10-day-old cultures of F. oxysporum or P. cactorum. The inoculation was conducted by transferring a 5-mm (i.d.) GPY-agar block covered with mycelium to the center of the Petri dish, followed by incubation in a thermostat at 27 °C. The fungicidal effect was scored by the size of the mycelium colony on a Petri dish compared to the control without fungicidal admixtures to GPY agar. Each treatment was performed in at least four replicates in two independent experiments. The observation period ended when the control Petri dish was filled with mycelium (usually after 12 days). […] The solutions of the compounds were prepared with a concentration of 2 mmol/L (stock solution). For comparison, test compounds were also commonly applied as disinfecting agents, and antibiotics were used as a positive control.

[2] = test system: Fusarium oxysporum IBPPM 543; assay: Mycelial radial growth inhibition; format: cell-based; conditions: Fusarium oxysporum; for inhibition at 10 µg/mL / inhibition at 15 µg/mL / inhibition at 30 µg/mL / inhibition at 60 µg/mL: read-out: Inhibition value, I (%)
Description: as §1, §2

[3] = test system: Pectobacterium atrosepticum 1043; assay: Agar-well diffusion, bactericidal activity; format: cell-based; conditions: Pectobacterium atrosepticum, 1043; 500 μg/mL; read-out: width of the inhibition zone (mm), P. atrosepticum
Description: as §1
(§3) The antibacterial and antifungal activities of the compounds were explored using the agar-well diffusion method and the technique of mycelial radial growth inhibition. The method of diffusion in agar (measuring the diameter of growth inhibition zones) was used to determine the bactericidal activity. The 6-mm wells were made in agar medium (GYCa for Xanthomonas campestris or BP for other bacteria). Bacterial suspensions were distributed over the agar surface, and the tested compound’s solution (150 μL) was added to each well. The width of growth inhibition zones around the wells was determined after incubation for 36–40 h.

Micrococcus luteus B-109 = assay: Agar-well diffusion, bactericidal activity; format: cell-based; conditions: Micrococcus luteus, B109, 500 μg/mL; read-out: width of the inhibition zone (mm), M. luteus
Description: as §1, §3

[4] = test system: Pectobacterium carotovorum subsp. carotovorum MI; assay: Agar-well diffusion, bactericidal activity; format: cell-based; conditions: Pectobacterium carotovorum; 500 μg/mL; read-out: width of the inhibition zone (mm), P. carotovorum subsp. carotovorum
Description: as §1, §3

[5] = test system: Pseudomonas fluorescens EL-2.1; assay: Agar-well diffusion, bactericidal activity; format: cell-based; conditions: Pseudomonas fluorescens, EL2.1; 500 μg/mL; read-out: width of the inhibition zone (mm), Ps. fluorescens
Description: as §1, §3

[6] = test system: Xanthomonas campestris B-610; assay: Agar-well diffusion, bactericidal activity; format: cell-based; conditions: Xanthomonas campestris, B610, read-out: width of the inhibition zone (mm), X. campestris
Experimental: Bacteria M. luteus, P. carotovorum subsp. carotovorum, P. atrosepticum, and P. fluorescens were grown in a meat–peptone medium (BP), and X. campestris was grown in the medium with glucose, yeast extract, and calcium carbonate (GYCa). Solid media contained Bacto agar (18 g/L); pH was adjusted to 7.2–7.4. […] For inoculum preparation, both fungal strains were initially grown on the agar GPY in Petri dishes and then transferred into the seed medium by punching out 5 mm of the agar plate culture with a self-designed cutter.
as §3

M-HeLa = assay: MTT cell viability test, M-HeLa; format: cell-based, human; conditions: Homo sapiens, M-HeLa; incubation time 24 h
Experimental: (§4) Human cell cultures of tumor origin—HeLa (cervical tumor), HuTu 80 (human duodenal adenocarcinoma), ChangLiver (human liver HeLa-like line), and normal cell line WI38, VA 13 subline 2RA is a diploid human cell strain composed of fibroblasts derived from healthy lung tissue provided by The Gamaleya National Center for Epidemiology and Microbiology, as well as the Institute of Cytology of the Russian Academy of Sciences. They were grown in a nutrient medium DMEM (PanEco, Moscow, Russia) and MEM (PanEco, Moscow, Russia), containing fetal bovine serum (10% by volume) (ThermoFisher Scientific, Paisley, UK), Glutamax (2 mM) (Gibco, Scotland, UK), and penicillin-streptomycin (1% by volume) (PanEco, Moscow, Russia). The cultivation was carried out at 37 °C in a humidified CO2 atmosphere (5%).
(§5) Cell viability was determined by the MTT test. Cells were seeded in a 96-well plate in the amount of 1 × 10^4 cells/200 µL of complete nutrient medium and cultured at 37 °C in CO2 (5%). After 24 h of incubation, various concentrations of test compounds in the range of 0.1 to 100 μM were added to the cell cultures, and then the cells were cultured under the same conditions for 24 and 72 h. For each concentration, the experiment was carried out in triplicate.
(§6) All compounds were dissolved in DMSO and then diluted with the medium to the required concentration. […] The DMSO was also added to the control wells in a volume of 1%. After the incubation time, MTT (3-(4,5-dimethylthiazol-2-yl)-2,5-diphenyltetrazolium bromide, 5 mg/mL) was added to each well, and plates were additionally incubated for 2 h (until the characteristic color appeared).
(§7) Using a plate analyzer (Cytation3, BioTech Instruments Inc., Winooski, VT, USA), the optical density was determined at 530 nm.
(§8) The IC50 parameter was calculated using the AAT Bioquest program.
(§9) The selectivity index (SI) is calculated as the ratio between the IC50 for normal cells and the IC50 for cancer cells.

HuTu 80 = assay: MTT cell viability test, HuTu 80; format: cell-based, human; conditions: Homo sapiens, HuTu80; incubation time 24 h
Experimental: as §4, §5, §6, §7, §8, §9

Chang Liver = assay: MTT cell viability test, Chang liver; format: cell-based; conditions: Homo sapiens, incubation time 24 h
Experimental: as §4, §5, §6, §7, §8

melting point: 155 to 156 °C
IC50 (M-HeLa): 94 ± 7.5 µM
Structure (SMILES): Cc1ccc2c(c1)C(=O)C(=O)N2Cc1cccc(C(F)(F)F)c1 [Compound 4e, 5-Methyl-1-(3-(trifluoromethyl)benzyl)indoline-2,3-dione]
IC50 (HuTu 80): 53.2 ± 3.9 µM
IC50 (Chang Liver): > 100 µM

melting point: 111 to 112 °C
IC50 (M-HeLa): 44.7 ± 3.3 µM
Structure (SMILES): Cc1ccc(CN2C(=O)C(=O)c3cc(F)ccc32)cc1 [Compound 4a, 5-Fluoro-1-(4-methylbenzyl)indoline-2,3-dione]
IC50 (HuTu 80): 44 ± 2.9 µM
IC50 (Chang Liver): 80 ± 5.8 µM

IC50 (M-HeLa): 98.8 ± 6.9 µM
Structure (SMILES): O=C1C(=O)N(Cc2c(F)cccc2F)c2ccccc21 [Compound 8c]
IC50 (HuTu 80): 50.3 ± 3.6 µM
IC50 (Chang Liver): 79 ± 5.5 µM

IC50 (M-HeLa): 40 ± 2.8 µM
Structure (SMILES): O=C1C(=O)N(Cc2ccc(Br)cc2F)c2ccccc21 [Compound 8b]
IC50 (HuTu 80): 59.4 ± 4.2 µM
IC50 (Chang Liver): 100 ± 8.4 µM

melting point: 123 to 124 °C
IC50 (M-HeLa): > 100 µM
Structure (SMILES): CC(C)(C)c1ccc(CN2C(=O)C(=O)c3cc(F)ccc32)cc1 [Compound 4c, 1-(4-(tert-Butyl)benzyl)-5-fluoroindoline-2,3-dione]
IC50 (HuTu 80): 43 ± 3 µM
IC50 (Chang Liver): 92.1 ± 7.4 µM

Further lines, the molecule ahead of its results:

Structure (SMILES): N#Cc1c[nH]cc1-c1cccc2c1OC(F)(F)O2 [Fludioxonil, fludioxonil, reference compound]
inhibition at 10 µg/mL ([1]; 72 h): 36%
inhibition at 15 µg/mL ([1]; 72 h): 38%
inhibition at 30 µg/mL ([1]; 72 h): 40%
inhibition at 60 µg/mL ([1]; 72 h): 52%
EC50 ([1]; 120 h, read-out: EC50, µg/mL at Day 5, P. cactorum): 29.5 µg/mL (≈ 119 µM)
inhibition at 10 µg/mL ([1]; 120 h): 38%
inhibition at 15 µg/mL ([1]; 120 h): 46%
inhibition at 30 µg/mL ([1]; 120 h): 51%
inhibition at 60 µg/mL ([1]; 120 h): 57%
inhibition at 10 µg/mL ([1]; 168 h): 35%
inhibition at 15 µg/mL ([1]; 168 h): 42%
inhibition at 30 µg/mL ([1]; 168 h): 46%
inhibition at 60 µg/mL ([1]; 168 h): 49%
inhibition at 10 µg/mL ([1]; 216 h): 9%
inhibition at 15 µg/mL ([1]; 216 h): 17%
inhibition at 30 µg/mL ([1]; 216 h): 23%
inhibition at 60 µg/mL ([1]; 216 h): 29%
inhibition at 10 µg/mL ([2]; IBPPM543, 72 h): 18%
inhibition at 15 µg/mL ([2]; IBPPM543, 72 h): 21%
inhibition at 30 µg/mL ([2]; IBPPM543, 72 h): 26%
inhibition at 60 µg/mL ([2]; IBPPM543, 72 h): 32%
EC50 ([2]; IBPPM543, 120 h, read-out: EC50, µg/mL at Day 5, F. oxysporum): 83.3 µg/mL (≈ 336 µM)
inhibition at 10 µg/mL ([2]; IBPPM543, 120 h): 23%
inhibition at 15 µg/mL ([2]; IBPPM543, 120 h): 30%
inhibition at 30 µg/mL ([2]; IBPPM543, 120 h): 33%
inhibition at 60 µg/mL ([2]; IBPPM543, 120 h): 35%
inhibition at 10 µg/mL ([2]; IBPPM543, 168 h): 6%
inhibition at 15 µg/mL ([2]; IBPPM543, 168 h): 20%
inhibition at 30 µg/mL ([2]; IBPPM543, 168 h): 23%
inhibition at 60 µg/mL ([2]; IBPPM543, 168 h): 25%
inhibition at 10 µg/mL ([2]; IBPPM543, 216 h): 4%
inhibition at 15 µg/mL ([2]; IBPPM543, 216 h): 5%
inhibition at 30 µg/mL ([2]; IBPPM543, 216 h): 8%
inhibition at 60 µg/mL ([2]; IBPPM543, 216 h): 9%

Structure (SMILES): CCn1cc(C(=O)O)c(=O)c2cc(F)c(N3CCNCC3)cc21 [Norfloxacin, norfloxacin, reference compound]
zone of inhibition at 500 µg/mL [3]: 7 mm
zone of inhibition at 500 µg/mL (Micrococcus luteus B-109): 7 mm
zone of inhibition at 500 µg/mL [4]: 8 mm
zone of inhibition at 500 µg/mL [5]: 8 mm
zone of inhibition at 500 µg/mL [6]: 7 mm

Structure (SMILES): O=C1C(=O)N(Cc2cccc(C(F)(F)F)c2)c2ccc(F)cc21 [Compound 3e, 5-Fluoro-1-(3-(trifluoromethyl)benzyl)indoline-2,3-dione]
melting point: 170 to 171 °C

— article PMC10607100, “Anticancer and Antiphytopathogenic Activity of Fluorinated Isatins and Their Water-Soluble Hydrazone Derivatives” (International Journal of Molecular Sciences, 2023)
